From patent publication US8471005B2 (Cephalon, Inc., priority 2008, dated 2013)
Where two headings read alike, the source gives them in different places.

Assays:
JAK2 = molecular target: T1, JAK2 (Homo sapiens, UniProt O60674); assay: Recombinant Human JAK2 Kinase Assay (TRF); type: biochemical; conditions: read-out: JAK2 Potency
T1 construct: host or cells: baculovirus expression system
Summary of the method: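 Kinase activity of baculovirus-expressed JAK2 is followed on a surface-immobilised biotinylated peptide, with the reaction run for 20 min at room temperature in buffer containing 0.2 μM ATP and manganese. Phosphorylation is read with Eu-N1 PY100 antibody.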

ALK = molecular target: T2, ALK (Homo sapiens, UniProt Q9UM73); assay: ALK Kinase Assay (ELISA/TRF, PLC-γ substrate); type: biochemical; conditions: read-out: ALK Potency
T2 construct: host or cells: baculovirus expression system
Summary of the method: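 First, plates are coated with substrate (phospholipase C-γ, 10 μg/mL, TBS). Next, 30 ng/ml ALK initiates phosphorylation for 15 min at 37° C. Then Eu-N1 PT66 antibody is added for detection, and a nonlinear dose-response fit of percent inhibition yields IC50.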

[1] = JAK2 kinase inhibition, 0.2 μM ATP
[2] = ALK kinase inhibition, 1 μM ATP

T1 sequence (O60674 whole entry): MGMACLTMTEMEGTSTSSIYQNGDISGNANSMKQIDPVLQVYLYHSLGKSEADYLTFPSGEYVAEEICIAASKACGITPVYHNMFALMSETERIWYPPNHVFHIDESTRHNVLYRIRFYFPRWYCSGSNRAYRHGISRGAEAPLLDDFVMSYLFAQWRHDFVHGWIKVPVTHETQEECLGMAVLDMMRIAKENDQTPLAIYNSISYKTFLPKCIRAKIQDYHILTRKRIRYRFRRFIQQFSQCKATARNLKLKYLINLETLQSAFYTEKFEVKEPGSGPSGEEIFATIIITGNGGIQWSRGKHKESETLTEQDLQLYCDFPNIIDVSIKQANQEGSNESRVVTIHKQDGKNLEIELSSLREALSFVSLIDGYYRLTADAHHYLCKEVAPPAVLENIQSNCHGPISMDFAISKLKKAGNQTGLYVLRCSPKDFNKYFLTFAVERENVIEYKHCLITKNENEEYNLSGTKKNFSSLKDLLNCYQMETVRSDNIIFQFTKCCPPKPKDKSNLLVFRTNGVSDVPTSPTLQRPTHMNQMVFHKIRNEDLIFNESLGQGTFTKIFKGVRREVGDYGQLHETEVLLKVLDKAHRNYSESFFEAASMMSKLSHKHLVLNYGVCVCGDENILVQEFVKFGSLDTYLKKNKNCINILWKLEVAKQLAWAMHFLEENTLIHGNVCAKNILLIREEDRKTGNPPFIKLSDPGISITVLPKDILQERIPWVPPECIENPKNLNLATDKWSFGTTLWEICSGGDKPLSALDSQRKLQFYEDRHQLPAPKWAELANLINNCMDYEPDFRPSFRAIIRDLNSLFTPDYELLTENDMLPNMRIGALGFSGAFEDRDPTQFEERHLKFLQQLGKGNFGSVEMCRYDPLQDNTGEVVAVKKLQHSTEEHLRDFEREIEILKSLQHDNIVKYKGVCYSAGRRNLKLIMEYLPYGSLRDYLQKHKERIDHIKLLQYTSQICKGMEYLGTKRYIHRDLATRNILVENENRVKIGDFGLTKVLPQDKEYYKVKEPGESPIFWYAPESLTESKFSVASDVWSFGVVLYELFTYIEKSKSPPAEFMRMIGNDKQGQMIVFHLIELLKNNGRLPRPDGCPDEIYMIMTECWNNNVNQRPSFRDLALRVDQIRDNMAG
T2 sequence (Q9UM73 19-1620): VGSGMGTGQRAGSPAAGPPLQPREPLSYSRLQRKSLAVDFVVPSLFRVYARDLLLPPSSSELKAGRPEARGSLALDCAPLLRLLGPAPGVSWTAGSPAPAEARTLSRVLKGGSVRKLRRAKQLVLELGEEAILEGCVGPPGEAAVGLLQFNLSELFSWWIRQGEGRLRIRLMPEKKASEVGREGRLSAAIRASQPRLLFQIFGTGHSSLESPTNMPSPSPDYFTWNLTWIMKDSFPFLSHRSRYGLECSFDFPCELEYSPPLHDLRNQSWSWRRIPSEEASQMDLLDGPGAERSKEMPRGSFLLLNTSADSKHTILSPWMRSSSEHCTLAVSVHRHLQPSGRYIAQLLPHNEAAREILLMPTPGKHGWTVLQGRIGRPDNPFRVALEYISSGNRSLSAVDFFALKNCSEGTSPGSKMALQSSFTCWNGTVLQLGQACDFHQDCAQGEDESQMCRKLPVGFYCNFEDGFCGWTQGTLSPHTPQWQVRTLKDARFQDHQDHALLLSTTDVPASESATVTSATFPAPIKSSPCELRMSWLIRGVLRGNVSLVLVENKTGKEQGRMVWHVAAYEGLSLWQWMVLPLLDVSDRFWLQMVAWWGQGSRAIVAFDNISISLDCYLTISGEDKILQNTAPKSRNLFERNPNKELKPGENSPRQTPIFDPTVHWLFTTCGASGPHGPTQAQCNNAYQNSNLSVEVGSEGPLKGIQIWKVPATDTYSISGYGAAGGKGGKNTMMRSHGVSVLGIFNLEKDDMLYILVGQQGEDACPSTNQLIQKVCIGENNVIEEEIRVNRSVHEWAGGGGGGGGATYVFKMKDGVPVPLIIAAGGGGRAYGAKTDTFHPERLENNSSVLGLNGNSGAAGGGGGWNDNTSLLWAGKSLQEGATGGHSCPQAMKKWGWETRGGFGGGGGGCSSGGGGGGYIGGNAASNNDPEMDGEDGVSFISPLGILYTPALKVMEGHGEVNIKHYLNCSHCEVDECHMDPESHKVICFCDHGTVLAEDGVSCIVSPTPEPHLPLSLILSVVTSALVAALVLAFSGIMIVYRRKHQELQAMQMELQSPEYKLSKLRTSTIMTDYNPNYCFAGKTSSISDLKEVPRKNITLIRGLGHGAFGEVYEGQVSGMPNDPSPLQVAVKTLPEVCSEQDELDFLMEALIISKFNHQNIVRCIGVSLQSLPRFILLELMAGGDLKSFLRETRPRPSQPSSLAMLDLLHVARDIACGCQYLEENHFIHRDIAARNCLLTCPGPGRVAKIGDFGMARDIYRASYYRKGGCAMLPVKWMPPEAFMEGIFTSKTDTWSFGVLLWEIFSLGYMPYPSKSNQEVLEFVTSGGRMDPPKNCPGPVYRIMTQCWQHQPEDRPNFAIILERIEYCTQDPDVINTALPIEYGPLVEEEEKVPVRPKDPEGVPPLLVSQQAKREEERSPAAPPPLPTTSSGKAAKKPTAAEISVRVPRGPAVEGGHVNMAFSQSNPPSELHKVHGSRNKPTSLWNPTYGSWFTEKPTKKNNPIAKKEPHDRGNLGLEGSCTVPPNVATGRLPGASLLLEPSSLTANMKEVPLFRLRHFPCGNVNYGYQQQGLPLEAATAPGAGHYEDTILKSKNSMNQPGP

IC50 (JAK2; JAK2 Kinase Inhibition) | IC50 (ALK; ALK Kinase Inhibition) | IC50 (JAK2; [1]) | IC50 (ALK; [2]) | Compound
< 100 nM | 1000 to 10000 nM |  |  | NC(=O)CN1CCC(c2ccc(Nc3ncc4ccc(-c5ncccn5)n4n3)cc2)CC1 [Example 1568, 2-{4-[4-(7-Pyrimidin-2-yl-pyrrolo[2,1-f][1,2,4]triazin-2-ylamino)-phenyl]-piperidin-1-yl}-acetamide]
 |  | < 100 nM | 100 to 1000 nM | CN1CCC(c2ccc(Nc3ncc4ccc(-c5cnn(CCC#N)c5)n4n3)cc2)CC1 [Example 932, 3-(4-{2-[4-(1-Methyl-piperidin-4-yl)-phenylamino]-pyrrolo[2,1-f][1,2,4]triazin-7-yl}-pyrazol-1-yl)-propionitrile]
< 100 nM | 100 to 1000 nM |  |  | CN1CCN(CC2CCN(c3ccc(Nc4ncc5ccc(-c6ccc(S(C)(=O)=O)cc6)n5n4)cc3)CC2)CC1 [Example 452, [7-(4-Methanesulfonyl-phenyl)-pyrrolo[2,1-f][1,2,4]triazin-2-yl]-{4-[4-(4-methyl-piperazin-1-ylmethyl)-piperidin-1-yl]-phenyl}-amine]
< 100 nM | 100 to 1000 nM |  |  | CS(=O)(=O)c1ccc(-c2ccc3cnc(Nc4ccc(C5CCN(CC(N)=O)CC5)cc4)nn23)cc1 [Example 1435, 2-(4-{4-[7-(4-Methanesulfonyl-phenyl)-pyrrolo[2,1-f][1,2,4]triazin-2-ylamino]-phenyl}-piperidin-1-yl)-acetamide]
 |  | < 100 nM | 1000 to 10000 nM | CN1CCN(c2ccc(Nc3ncc4ccc(-c5ccccc5CNCCS(C)(=O)=O)n4n3)cc2)CC1 [Example 1199, (7-{2-[(2-M ethanesulfonyl-ethylamino)-methyl]-phenyl}-pyrrolo[2,1-f][1,2,4]triazin-2-yl)-[4-(4-methyl-piperazin-1-yl)-phenyl]-amine]
 |  | < 100 nM | 100 to 1000 nM | COc1ccc(-c2ccc3cnc(Nc4ccc(N5CCN(C)CC5)nc4)nn23)cn1 [Example 1109, [7-(6-Methoxy-pyridin-3-yl)-pyrrolo[2,1-f][1,2,4]triazin-2-yl]-[6-(4-methyl-piperazin-1-yl)-pyridin-3-yl]-amine]
 |  | < 100 nM | 100 to 1000 nM | CC(C)Oc1cccc(-c2ccc3cnc(Nc4ccc(C5CCN(CC(N)=O)CC5)cc4)nn23)c1 [Example 588, 2-(4-{4-[7-(3-Isopropoxy-phenyl)-pyrrolo[2,1-f][1,2,4]triazin-2-ylamino]-phenyl}-piperidin-1-yl)-acetamide]
< 100 nM | < 100 nM |  |  | CN1CCN(C2CCN(c3ccc(Nc4ncc5ccc(-c6cccc(Cl)c6)n5n4)cc3)CC2)CC1 [Example 312, [7-(3-Chloro-phenyl)-pyrrolo[2,1-f][1,2,4]triazin-2-yl]-{4-[4-(4-methyl-piperazin-1-yl)-piperidin-1-yl]-phenyl}-amine]
< 100 nM | 100 to 1000 nM |  |  | CN1CCN(c2ccc(Nc3ncc4ccc(-c5cccc(S(=O)(=O)NCCO)c5)n4n3)cc2)CC1 [Example 369, N-(2-Hydroxy-ethyl)-3-{2-[4-(4-methyl-piperazin-1-yl)-phenylamino]-pyrrolo[2,1-f][1,2,4]triazin-7-yl}-benzenesulfonamide]
< 100 nM | > 10000 nM |  |  | Clc1cccc(-c2ccc3cnc(Nc4ccc(N5CCCCC5)cc4)nn23)c1 [Example 49, [7-(3-Chloro-phenyl)-pyrrolo[2,1-f][1,2,4]triazin-2-yl]-(4-piperidin-1-yl-phenyl)-amine]
< 100 nM | 100 to 1000 nM |  |  | COc1cc(N2CCN(C)CC2)ccc1Nc1ncc2ccc(-c3ccc(C#N)nc3)n2n1 [Example 77, 5-{2-[2-Methoxy-4-(4-methyl-piperazin-1-yl)-phenylamino]-pyrrolo[2,1-f][1,2,4]triazin-7-yl}-pyridine-2-carbonitrile]
 |  | < 100 nM | 1000 to 10000 nM | Cn1cc(-c2ccc3cnc(Nc4cccc(-n5cccn5)c4)nn23)cn1 [Example 964, [7-(1-Methyl-1H-pyrazol-4-yl)pyrrolo[2,1f][1,2,4]triazin-2-yl]-(3-pyrazol-1-yl-phenyl)-amine]

The next lines start with the molecule.

Compound | IC50 (JAK2; JAK2 Kinase Inhibition) | IC50 (ALK; ALK Kinase Inhibition) | IC50 (JAK2; [1]) | IC50 (ALK; [2])
CN(c1ccccc1-c1ccc2cnc(Nc3ccc4c(c3)CCC(N3CCOCC3)CC4)nn12)S(C)(=O)=O (centres unmarked) [Example 615, N-Methyl-N-{2-[2-(7-morpholin-4-yl-6,7,8,9-tetrahydro-5H-benzocyclohepten-2-ylamino)-pyrrolo[2,1-f][1,2,4]triazin-7-yl]-phenyl}-methanesulfonamide] |  |  | < 100 nM | < 100 nM
COc1ccc(N(C)S(C)(=O)=O)c(-c2ccc3cnc(Nc4ccc(C5CCN(CC(N)=O)CC5)cc4OC)nn23)c1 [Example 1283, 2-[4-(4-{7-[2-(Methanesulfonyl-methyl-amino)-5-methoxy-phenyl]-pyrrolo[2,1-f][1,2,4]triazin-2-ylamino}-3-methoxy-phenyl)-piperidin-1-yl]-acetamide] |  |  | > 10000 nM | 100 to 1000 nM
COc1ccc(-c2ccc3cnc(Nc4ccc(N5CCN(CC(N)=O)CC5)c(F)c4)nn23)cn1 [Example 1415, 2-(4-{2-Fluoro-4-[7-(6-methoxy-pyridin-3-yl)-pyrrolo[2,1-f][1,2,4]triazin-2-ylamino]-phenyl}-piperazin-1-yl)-acetamide] | < 100 nM | 100 to 1000 nM |  | 
COc1cc(C2CCN(C[C@H](O)CO)CC2)ccc1Nc1ncc2ccc(-c3cccc(S(=O)(=O)NC(C)(C)C)c3)n2n1 [Example 695, N-tert-Butyl-3-(2-{4-[1-((S)-2,3-dihydroxy-propyl)-piperidin-4-yl]-2-methoxy-phenylamino}-pyrrolo[2,1-f][1,2,4]triazin-7-yl)-benzenesulfonamide] |  |  | 100 to 1000 nM | < 100 nM
CC(C)C(=O)Nc1cccc(Nc2ncc3ccc(-c4cccc(S(=O)(=O)NC(C)(C)C)c4)n3n2)c1 [Example 1385, N-{3-[7-(3-tert-Butylsulfamoyl-phenyl)-pyrrolo[2,1-f][1,2,4]triazin-2-ylamino]-phenyl}-isobutyramide] | < 100 nM | 1000 to 10000 nM |  | 
Cc1nc2cc(Nc3ncc4ccc(-c5cccc(S(=O)(=O)NC(C)(C)C)c5)n4n3)ccc2o1 [Example 600, N-tert-Butyl-3-[2-(2-methyl-benzoxazol-5-ylamino)-pyrrolo[2,1-f][1,2,4]triazin-7-yl]-benzenesulfonamide] |  |  | < 100 nM | 1000 to 10000 nM
COc1cc(N2CCC(N3CCN(C)CC3)CC2)ccc1Nc1ncc2ccc(-c3ccccc3OC)n2n1 [Example 251, {2-Methoxy-4-[4-(4-methyl-piperazin-1-yl)-piperidin-1-yl]-phenyl}-[7-(2-methoxy-phenyl)-pyrrolo[2,1-f][1,2,4]triazin-2-yl]-amine] | < 100 nM | < 100 nM |  | 
c1ccc(NCc2ccc3cnc(Nc4ccc(N5CCOCC5)cc4)nn23)cc1 [Example 362, (4-Morpholin-4-yl-phenyl)-(7-phenylaminomethyl-pyrrolo[2,1-f][1,2,4]triazin-2-yl)-amine] | < 100 nM | 1000 to 10000 nM |  | 
COc1ccccc1-c1ccc2cnc(Nc3cn(CC(=O)N4CCOCC4)cn3)nn12 [Example 1113, 2-{4-[7-(2-Methoxy-phenyl)-pyrrolo[2,1-f][1,2,4]triazin-2-ylamino]-imidazol-1-yl}-1-morpholin-4-yl-ethanone] |  |  | < 100 nM | 1000 to 10000 nM
CC1(C)C(=O)Nc2cc(Nc3ncc4ccc(-c5cccc(N6CCCS6(=O)=O)c5)n4n3)ccc21 [Example 1510, 6-({7-[3-(1,1-Dioxido-1,2-thiazolidin-2-yl)phenyl]pyrrolo[2,1-f][1,2,4]triazin-2-yl}amino)-3,3-dimethyl-1,3-dihydro-2H-indol-2-one] | < 100 nM | 1000 to 10000 nM |  | 
CCN(CC)C(=O)c1ccccc1-c1ccc2cnc(Nc3ccc(N4CCOCC4)cc3)nn12 [Example 408, N,N-Diethyl-2-[2-(4-morpholin-4-yl-phenylamino)-pyrrolo[2,1-f][1,2,4]triazin-7-yl]-benzamide] | < 100 nM | 100 to 1000 nM |  | 
OC(c1ccccc1)c1ccc2cnc(Nc3ccc(N4CCOCC4)cc3)nn12 (centres unmarked) [Example 383, [2-(4-Morpholin-4-yl-phenylamino)-pyrrolo[2,1-f][1,2,4]triazin-7-yl]-phenyl-methanol] | < 100 nM | 1000 to 10000 nM |  | 
COc1cc(N2CCC(C(=O)N3CCN(C)CC3)CC2)ccc1Nc1ncc2ccc(-c3ccccc3N(C)S(C)(=O)=O)n2n1 [Example 459, N-[2-(2-{2-Methoxy-4-[4-(4-methyl-piperazine-1-carbonyl)-piperidin1-yl]-phenylamino}-pyrrolo[2,1-f][1,2,4]triazin-7-yl)-phenyl]-N-methyl-methanesulfonamide] | 100 to 1000 nM | < 100 nM |  | 
CN1CCCC1COc1cc(Nc2ncc3ccc(-c4cccc(S(C)(=O)=O)c4)n3n2)ccc1Cl (centres unmarked) [Example 1013, [4-Chloro-3-(1-methyl-pyrrolidin-2-ylmethoxy)-phenyl]-[7-(3-methanesulfonyl-phenyl)-pyrrolo[2,1-f][1,2,4]triazin-2-yl]-amine] |  |  | < 100 nM | 1000 to 10000 nM
COc1ccccc1-c1ccc2cnc(Nc3cccc(C(=O)N4CCN(C)CC4)c3OC)nn12 [Example 1231, {2-Methoxy-3-[7-(2-methoxy-phenyl)-pyrrolo[2,1-f][1,2,4]triazin-2-ylamino]-phenyl}-(4-methyl-piperazin-1-yl)-methanone] |  |  | 1000 to 10000 nM | 100 to 1000 nM
COc1cc(N2CCC3(CC2)OCCO3)ccc1Nc1ncc2ccc(-c3ccccc3OC)n2n1 [Example 482, [4-(1,4-Dioxa-8-aza-spiro[4.5]dec-8-yl)-2-methoxy-phenyl]-[7-(2-methoxy-phenyl)-pyrrolo[2,1-f][1,2,4]triazin-2-yl]-amine] |  |  | 100 to 1000 nM | 100 to 1000 nM
